Experimental data reported in PMC4790851, “Iminosugars Inhibit Dengue Virus Production via Inhibition of ER Alpha-Glucosidases—Not Glycolipid Processing Enzymes” (PLoS Neglected Tropical Diseases, 2016).

Tests used:
DENV = system: DENV; parameters: method as in PMID 23070155, PMID 23376501, PMID 22020302, PMID 22867971; conditions: post-exposure therapeutic administration; cited from earlier work
Glucosyltransferase HL60 = target: T1, Glucosyltransferase HL60 (Homo sapiens, UniProt Q16739); experiment: In vitro enzyme inhibition; assay type: biochemical; conditions: glucosyltransferase isolated from HL60 human promyelocytic cell line; read-out: IC50
T1 construct: endogenous in cells; host or cells: HL60
T1 sequence (Q16739 1-394): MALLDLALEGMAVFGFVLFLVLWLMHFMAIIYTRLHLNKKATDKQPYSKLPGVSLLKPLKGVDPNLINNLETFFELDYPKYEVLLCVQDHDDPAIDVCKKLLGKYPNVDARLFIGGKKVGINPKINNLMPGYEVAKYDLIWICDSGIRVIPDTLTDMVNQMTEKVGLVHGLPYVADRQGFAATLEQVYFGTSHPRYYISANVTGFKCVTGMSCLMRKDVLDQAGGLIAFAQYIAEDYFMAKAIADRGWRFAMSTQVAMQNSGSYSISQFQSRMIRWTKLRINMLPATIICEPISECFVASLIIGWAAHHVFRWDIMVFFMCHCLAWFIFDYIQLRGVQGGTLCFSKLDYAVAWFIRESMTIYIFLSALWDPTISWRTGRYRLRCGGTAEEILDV

DENV2 strain 16681 = experiment: Infectious virus (plaque assay) and total virus (qRT-PCR for DENV RNA) secreted from infected MDMΦs; assay type: cell-based, dengue virus serotype 2; conditions: serial dilution, 48 h post-infection, normalized to untreated
Protocol: MDMΦ were infected with DENV2 16681 diluted to a multiplicity of infection (MOI) of 1 in X-VIVO10 without supplements for 90 minutes (20°C, with rocking). Upon removal of virus, fresh MDMΦ growth medium without IL-4 but containing serial dilutions of drug or control was placed on the cells, and cells were incubated for 48 hours (37°C, 5% CO2). For collection of infectious virus, supernatant was harvested and centrifuged for 5 minutes (room temperature, 400 x g) to pellet any cells/debris, and supernatants were aliquoted and stored at -80°C until analysis by plaque assay. […]
Virus titres for samples from human MDMΦ and C6/36 infections were obtained by LLC-MK2 plaque assays as per previous descriptions. […] A second-overlay containing nutrients, low-melting point tissue culture-grade agarose, and neutral red stain [33] was added and allowed to solidify at 20°C before further incubation for 1 day (37°C, 5% CO2) after which plaques were counted by eye. […]
DENV RNA in cell culture supernatants was isolated according to the manufacturer’s protocol for Direct-zol RNA MiniPrep Kit (Zymo Research) and assayed by reverse transcription-real time polymerase chain reaction (qRT-PCR) on an Applied Biosystems 7500 real-time PCR system (Life Technologies). […] Samples were read in technical duplicate and compared to a standard curve generated from high-titer viral RNA isolated from C6/36-grown DENV2. […]

[1] = target: T2, Human lysosome α-galactosidase (Homo sapiens, UniProt P06280); experiment: In vitro enzyme inhibition; assay type: biochemical; conditions: concentration required to inhibit the enzyme to 50% activity; read-out: IC50
T2 sequence (P06280 32-429): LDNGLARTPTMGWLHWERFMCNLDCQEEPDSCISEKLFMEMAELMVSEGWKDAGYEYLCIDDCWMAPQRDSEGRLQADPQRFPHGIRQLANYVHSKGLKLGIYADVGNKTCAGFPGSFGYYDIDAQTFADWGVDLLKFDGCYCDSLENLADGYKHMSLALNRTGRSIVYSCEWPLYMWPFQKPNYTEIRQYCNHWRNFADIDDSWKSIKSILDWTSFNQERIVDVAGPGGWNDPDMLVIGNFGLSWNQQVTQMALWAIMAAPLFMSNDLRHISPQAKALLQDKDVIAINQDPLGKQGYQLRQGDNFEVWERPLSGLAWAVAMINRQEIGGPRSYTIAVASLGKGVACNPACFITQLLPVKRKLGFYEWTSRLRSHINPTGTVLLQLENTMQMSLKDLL

SMILES | protection in lethal mouse models of DENV infection (DENV) | IC50 (Glucosyltransferase HL60) [µM] | infectious virus and total virus secreted (DENV2 strain 16681) | IC50 [1] [µM]
CCCC(=O)O[C@H]1CN2CC[C@H](O)[C@@H]2[C@@H](O)[C@@H]1O [Celgosivir, 6-O-butanoyl-castanospermine] | protection in lethal mouse models | > 1000 | reduces infectious virus (solid lines) and total virus (dashed lines) secreted in a one-to-one ratio | > 1000
CCCCN1C[C@H](O)[C@@H](O)[C@H](O)[C@H]1CO [NB-DNJ, N-butyl-DNJ] | protection in lethal mouse models | – | reduces infectious virus (solid lines) and total virus (dashed lines) secreted in a one-to-one ratio | –
CCCCCCCCCN1C[C@H](O)[C@@H](O)[C@@H](O)[C@H]1CO [NN-DGJ] | – | – | – | 35.5
